Laboratory results from article PMC12298648, “An Evaluation of the Cytotoxicity and Safety Profile of Usnic Acid for a Broad Panel of Human Cancers and Normal Cells with Respect to Its Enantiospecificity” (Molecules, 2025).
≈ marks a conversion by molar mass, not a printed value. Like-named read-outs stand apart in the source and are kept apart here.

How the values were obtained:
DLD-1 = experiment: MTT viability assay, DLD-1 colon cancer cells; assay type: cell-based, human; conditions: for Cell viability: DLD-1, 24 h; for IC50: Homo sapiens
From the text: (§1) Cell lines of different origins were used in the study and grouped as follows: prostate panel (human prostate carcinomas: DU145, derived from metastatic site: brain; grade IV PC3, derived from metastatic site: bone; LNCaP, derived from the metastatic site: lymph node; prostate epithelial, PNT2), colon panel (colorectal adenocarcinomas: HT29, originating from a primary tumor; Duke’s type C DLD-1, with the potential to lymph node metastasis; highly metastatic HCT116; colon epithelial cells CCD 841 CoN), thyroid panel (follicular thyroid carcinoma FTC133, anaplastic thyroid carcinoma 8505C, papillary thyroid carcinoma TPC-1, normal thyroid follicular epithelial Nthy-ori 3–1), breast panel (ER-positive breast adenocarcinoma MCF7, ER-negative breast adenocarcinoma MDA-MB-231, breast epithelial MCF10A), brain panel (neuroblastoma SH-SY5Y, glioblastoma U-87 MG, murine astrocytes C8D1A). All cell lines were purchased from Merck (Darmstadt, Germany).
(§2) Cells were grown under standard conditions (37 °C, 5% CO2) and culture media (DMEM/F12 for PNT2, PC3, FTC133, 8505 C, MDA-MB-231, TPC-1; DMEM Low Glucose for DU145; DMEM High Glucose for HCT116, DLD-1, SH-SY5Y, U87MG, C8D1A; MEM with NEAA for MCF7; MEM for CCD 841 CoN; McCoy’s for HT29; RPMI1640 with sodium pyruvate for LNCaP; DMEM/F12 with 20 ng/mL epidermal growth factor (EGF), 10 μg/mL insulin, 0.5 μg/mL hydrocortisone, 100 ng/mL cholera toxin) for MCF10A), supplemented with 10% fetal bovine serum (FBS) or 5% donor horse serum for MCF10A, and 1% antibiotics solution (10,000 U penicillin and 10 mg streptomycin/mL). The tested substances were prepared as 10 mg/mL stock solutions in DMSO and further diluted in the culture media to the working concentrations. Cells were treated with UA enantiomers at the concentration range of 0–50 µg/mL. The influence of DMSO on cell viability was also examined, with the final concentration […], and no toxic effect was noted.
(§3) The cells were seeded onto 96-well plates at a density of 1.5 × 10^4 cells/well. After 24 h UA enantiomers were added. Cell viability was determined after 24, 48, and 72 h by the MTT assay, as described previously. Doxorubicin was used as a reference cytostatic drug. All analyses were performed in triplicate; cell viability was expressed as % of control, untreated cells (mean ± SD), and IC50 values (concentration at which cell viability is inhibited by 50%), if possible.

CCD 841 CoN = experiment: MTT viability assay, normal colon epithelial cells; assay type: cell-based, human; conditions: for Cell viability: CCD 841 CoN, 24 h; for IC50: Homo sapiens, CCD-841CoN
From the text: as §1, §2, §3

PNT2 = experiment: MTT viability assay, normal prostate epithelial cells; assay type: cell-based, human; conditions: for IC50: Homo sapiens; for Cell viability: PNT2, 24 h
From the text: as §1, §2, §3

TPC-1 = experiment: MTT viability assay, TPC-1 papillary thyroid carcinoma cells; assay type: cell-based, human; conditions: for IC50: Homo sapiens, TPC1; for Cell viability: TPC-1, 24 h
From the text: as §1, §2, §3
(§4) The selectivity index (SI) was calculated, if possible, by dividing the IC50 value obtained for non-cancerous cells line by the IC50 values obtained for appropriate cancer cell line, as described previously. […] The values above 3 indicate good selectivity.

FTC133 = experiment: MTT viability assay, FTC133 follicular thyroid carcinoma cells; assay type: cell-based, human; conditions: for Cell viability: FTC-133, 24 h; for IC50: Homo sapiens, FTC-133
From the text: as §1, §2, §3, §4

Nthy ori 3-1 = experiment: MTT viability assay, normal thyroid follicular epithelial cells; assay type: cell-based, human; conditions: for IC50: Homo sapiens; for Cell viability: Nthy ori 3-1, 24 h
From the text: as §1, §2, §3

MCF7 = experiment: MTT viability assay, MCF7 breast cancer cells; assay type: cell-based, human; conditions: for IC50: Homo sapiens; for Cell viability: MCF7, 24 h
From the text: as §1, §2, §3, §4

DU145 cells = conditions: DU145, 72 h, cited from earlier work
MCF7 cells = system: MCF7 cells; set-up: method as in not printed ('another' study); conditions: MCF7, 72 h, ref not given ('another' study), cited from earlier work
WM793 cells = system: WM793 cells; set-up: method as in PMID 34577645; conditions: WM793, 48 h; cited from earlier work
HepG2 cells = system: HepG2 cells; set-up: method as in PMID 40368021; conditions: cited from earlier work
[1] = recalculated from µM by the authors

CC(=O)C1=C(O)C=C2Oc3c(C(C)=O)c(O)c(C)c(O)c3[C@]2(C)C1=O [UA(−), (−)-usnic acid]
Cell viability (DLD-1; 2.5 µg/mL): 100.75 % of control
Cell viability (DLD-1; 5 µg/mL): 97.99 % of control
Cell viability (DLD-1; 10 µg/mL): 92.05 % of control
Cell viability (DLD-1; 20 µg/mL): 81.25 % of control
Cell viability (DLD-1; 30 µg/mL): 78.35 % of control
Cell viability (DLD-1; 40 µg/mL): 77.75 % of control
Cell viability (DLD-1; 50 µg/mL): 77.98 % of control
IC50 (DLD-1; DLD-1, 48 h): 44.3 µg/mL (≈ 129 µM)
IC50 (DLD-1; DLD-1, 72 h): 15.4 µg/mL (≈ 44.7 µM)
Cell viability (CCD 841 CoN; 2.5 µg/mL): 98.61 % of control
Cell viability (CCD 841 CoN; 5 µg/mL): 98.89 % of control
Cell viability (CCD 841 CoN; 10 µg/mL): 96.39 % of control
Cell viability (CCD 841 CoN; 20 µg/mL): 99.72 % of control
Cell viability (CCD 841 CoN; 30 µg/mL): 96.11 % of control
Cell viability (CCD 841 CoN; 40 µg/mL): 96.94 % of control
Cell viability (CCD 841 CoN; 50 µg/mL): 93.06 % of control
IC50 (CCD 841 CoN; 48 h): > 50 µg/mL
IC50 (CCD 841 CoN; 72 h): > 50 µg/mL
IC50 (PNT2; PNT2, 48 h): 35.4 µg/mL (≈ 103 µM)
IC50 (PNT2; PNT2, 72 h): 27.8 µg/mL (≈ 80.7 µM)
Cell viability (PNT2; 2.5 µg/mL): 103.40 % of control
Cell viability (PNT2; 5 µg/mL): 99.24 % of control
Cell viability (PNT2; 10 µg/mL): 91.32 % of control
Cell viability (PNT2; 20 µg/mL): 83.13 % of control
Cell viability (PNT2; 30 µg/mL): 74.58 % of control
Cell viability (PNT2; 40 µg/mL): 68.75 % of control
Cell viability (PNT2; 50 µg/mL): 54.38 % of control
IC50 (TPC-1; TPC-1, 48 h): > 50 µg/mL
IC50 (TPC-1; TPC-1, 72 h): 39.2 µg/mL (≈ 114 µM)
selectivity index (SI) (TPC-1; IC50 Nthy ori 3-1 / IC50 TPC-1, 72 h): 0.74
Cell viability (TPC-1; 2.5 µg/mL): 96.85 % of control
Cell viability (TPC-1; 5 µg/mL): 104.40 % of control
Cell viability (TPC-1; 10 µg/mL): 96.79 % of control
Cell viability (TPC-1; 20 µg/mL): 93.49 % of control
Cell viability (TPC-1; 30 µg/mL): 91.95 % of control
Cell viability (TPC-1; 40 µg/mL): 92.26 % of control
Cell viability (TPC-1; 50 µg/mL): 92.38 % of control
Cell viability (FTC133; 2.5 µg/mL): 108.51 % of control
Cell viability (FTC133; 5 µg/mL): 106.14 % of control
Cell viability (FTC133; 10 µg/mL): 87.63 % of control
Cell viability (FTC133; 20 µg/mL): 89.56 % of control
Cell viability (FTC133; 30 µg/mL): 93.33 % of control
Cell viability (FTC133; 40 µg/mL): 86.67 % of control
Cell viability (FTC133; 50 µg/mL): 83.25 % of control
IC50 (FTC133; FTC133, 48 h): > 50 µg/mL
IC50 (FTC133; FTC133, 72 h): 35.3 µg/mL (≈ 103 µM)
selectivity index (SI) (FTC133; IC50 Nthy ori 3-1 / IC50 FTC133, 72 h): 0.83
IC50 (Nthy ori 3-1; Nthy-ori 3-1, 48 h): > 50 µg/mL
IC50 (Nthy ori 3-1; Nthy-ori 3-1, 72 h): 29.3 µg/mL (≈ 85.1 µM)
Cell viability (Nthy ori 3-1; 2.5 µg/mL): 97.23 % of control
Cell viability (Nthy ori 3-1; 5 µg/mL): 99.36 % of control
Cell viability (Nthy ori 3-1; 10 µg/mL): 94.52 % of control
Cell viability (Nthy ori 3-1; 20 µg/mL): 93.76 % of control
Cell viability (Nthy ori 3-1; 30 µg/mL): 95.25 % of control
Cell viability (Nthy ori 3-1; 40 µg/mL): 96.10 % of control
Cell viability (Nthy ori 3-1; 50 µg/mL): 98.58 % of control
IC50 (MCF7; MCF7, 48 h): > 50 µg/mL
IC50 (MCF7; MCF7, 72 h): 33.4 µg/mL (≈ 97 µM)
Cell viability (MCF7; 2.5 µg/mL): 124.74 % of control
Cell viability (MCF7; 5 µg/mL): 113.59 % of control
Cell viability (MCF7; 10 µg/mL): 110.03 % of control
Cell viability (MCF7; 20 µg/mL): 106.15 % of control
Cell viability (MCF7; 30 µg/mL): 109.10 % of control
Cell viability (MCF7; 40 µg/mL): 106.28 % of control
Cell viability (MCF7; 50 µg/mL): 91.15 % of control
IC50 (DU145 cells; [1]): 15.8 µg/mL
IC50 (DU145 cells; read-out: IC50): 45.9 µM
IC50 (MCF7 cells; [1]): 17.8 µg/mL
IC50 (MCF7 cells; read-out: IC50): 51.7 µM
IC50 (WM793 cells): 52.09 µg/mL (≈ 151 µM)
IC50 (hepatotoxicity) (HepG2 cells; HepG2, 48 h): 16.0 µg/mL (≈ 46.5 µM)
IC50 (hepatotoxicity) (HepG2 cells; HepG2, 72 h): 18.3 µg/mL (≈ 53.1 µM)
